From patent US10189816B2, “Substituted pyridines as inhibitors of human immunodeficiency virus replication” (priority 2015, dated 2019)

The molecules below were run on NL-RLuc virus (assay: Inhibition of HIV replication (NL-RLuc reporter virus in MT-2 cells, luciferase readout)). Conditions: Human immunodeficiency virus 1, MT2, 120 h, read-out: Activity.
Assay type: cell-based
Summary of the method: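 MT-2 cells infected with NL4-3-derived NL-RLuc reporter virus (Renilla luciferase replacing part of nef) with serial compound dilutions, RPMI 1640 + 10% FBS; 5 days. Growth by luciferase; EC50 from median effect equation, ≥2 experiments.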

| SMILES | EC50 [µM] |
| --- | --- |
| COc1c(CN2CCc3cc(-c4c(C)nc(C)c([C@H](OC(C)(C)C)C(=O)O)c4N4CCC(C)(C)CC4)ccc3C2)cccc1C(F)(F)F [Compound 98, (S)-2-(tert-butoxy)-2-(4-(4,4-dimethylpiperidin-1-yl)-5-(2-(2-methoxy-3-(trifluoromethyl)benzyl)-1,2,3,4-tetrahydroisoquinolin-6-yl)-2,6-dimethylpyridin-3-yl)acetic acid] | < 0.1 |
| COc1ccc(Cl)cc1CN1CCc2cc(-c3c(C)nc(C)c([C@H](OC(C)(C)C)C(=O)O)c3N3CCC(C)(C)CC3)ccc2C1 [Compound 99, (S)-2-(tert-butoxy)-2-(5-(2-(5-chloro-2-methoxybenzyl)-1,2,3,4-tetrahydroisoquinolin-6-yl)-4-(4,4-dimethylpiperidin-1-yl)-2,6-dimethylpyridin-3-yl)acetic acid] | < 0.1 |
| COc1cc(Cl)cc(CN2CCc3cc(-c4c(C)nc(C)c([C@H](OC(C)(C)C)C(=O)O)c4N4CCC(C)(C)CC4)ccc3C2)c1 [Compound 100, (S)-2-(tert-butoxy)-2-(5-(2-(3-chloro-5-methoxybenzyl)-1,2,3,4-tetrahydroisoquinolin-6-yl)-4-(4,4-dimethylpiperidin-1-yl)-2,6-dimethylpyridin-3-yl)acetic acid] | < 0.1 |
| COc1cc(CN2CCc3cc(-c4c(C)nc(C)c([C@H](OC(C)(C)C)C(=O)O)c4N4CCC(C)(C)CC4)ccc3C2)ccc1F [Compound 101, (S)-2-(tert-butoxy)-2-(4-(4,4-dimethylpiperidin-1-yl)-5-(2-(4-fluoro-3-methoxybenzyl)-1,2,3,4-tetrahydroisoquinolin-6-yl)-2,6-dimethylpyridin-3-yl)acetic acid] | < 0.1 |
| Cc1nc(C)c([C@H](OC(C)(C)C)C(=O)O)c(N2CCC(C)(C)CC2)c1-c1ccc2c(c1)CCN(Cc1ccc(OC(F)(F)F)cc1)C2 [Compound 102, (S)-2-(tert-butoxy)-2-(4-(4,4-dimethylpiperidin-1-yl)-2,6-dimethyl-5-(2-(4-(trifluoromethoxy)benzyl)-1,2,3,4-tetrahydroisoquinolin-6-yl)pyridin-3-yl)acetic acid] | < 0.1 |
| CCOc1cccc(CN2CCc3cc(-c4c(C)nc(C)c([C@H](OC(C)(C)C)C(=O)O)c4N4CCC(C)(C)CC4)ccc3C2)c1 [Compound 103, (S)-2-(tert-butoxy)-2-(4-(4,4-dimethylpiperidin-1-yl)-5-(2-(3-ethoxybenzyl)-1,2,3,4-tetrahydroisoquinolin-6-yl)-2,6-dimethylpyridin-3-yl)acetic acid] | < 0.1 |
| Cc1nc(C)c([C@H](OC(C)(C)C)C(=O)O)c(N2CCC(C)(C)CC2)c1-c1ccc2c(c1)CCN(Cc1ccc(OC(F)(F)F)c(Cl)c1)C2 [Compound 104, (S)-2-(tert-butoxy)-2-(5-(2-(3-chloro-4-(trifluoromethoxy)benzyl)-1,2,3,4-tetrahydroisoquinolin-6-yl)-4-(4,4-dimethylpiperidin-1-yl)-2,6-dimethylpyridin-3-yl)acetic acid] | < 0.1 |
| Cc1nc(C)c([C@H](OC(C)(C)C)C(=O)O)c(N2CCC(C)(C)CC2)c1-c1ccc2c(c1)CCN(Cc1ccc(OC(F)F)cc1F)C2 [Compound 105, (S)-2-(tert-butoxy)-2-(5-(2-(4-(difluoromethoxy)-2-fluorobenzyl)-1,2,3,4-tetrahydroisoquinolin-6-yl)-4-(4,4-dimethylpiperidin-1-yl)-2,6-dimethylpyridin-3-yl)acetic acid] | < 0.1 |
| COc1cc(F)c(CN2CCc3cc(-c4c(C)nc(C)c([C@H](OC(C)(C)C)C(=O)O)c4N4CCC(C)(C)CC4)ccc3C2)c(F)c1 [Compound 106, (S)-2-(tert-butoxy)-2-(5-(2-(2,6-difluoro-4-methoxybenzyl)-1,2,3,4-tetrahydroisoquinolin-6-yl)-4-(4,4-dimethylpiperidin-1-yl)-2,6-dimethylpyridin-3-yl)acetic acid] | < 0.1 |
| COc1cc(F)cc(F)c1CN1CCc2cc(-c3c(C)nc(C)c([C@H](OC(C)(C)C)C(=O)O)c3N3CCC(C)(C)CC3)ccc2C1 [Compound 107, (S)-2-(tert-butoxy)-2-(5-(2-(2,4-difluoro-6-methoxybenzyl)-1,2,3,4-tetrahydroisoquinolin-6-yl)-4-(4,4-dimethylpiperidin-1-yl)-2,6-dimethylpyridin-3-yl)acetic acid] | < 0.1 |
| Cc1nc(C)c([C@H](OC(C)(C)C)C(=O)O)c(N2CCC(C)(C)CC2)c1-c1ccc2c(c1)CCN(Cc1ccc(OC(F)(F)F)c(F)c1)C2 [Compound 108, (S)-2-(tert-butoxy)-2-(4-(4,4-dimethylpiperidin-1-yl)-5-(2-(3-fluoro-4-(trifluoromethoxy)benzyl)-1,2,3,4-tetrahydroisoquinolin-6-yl)-2,6-dimethylpyridin-3-yl)acetic acid] | < 0.1 |
| COc1cc(C(F)(F)F)ccc1CN1CCc2cc(-c3c(C)nc(C)c([C@H](OC(C)(C)C)C(=O)O)c3N3CCC(C)(C)CC3)ccc2C1 [Compound 109, (S)-2-(tert-butoxy)-2-(4-(4,4-dimethylpiperidin-1-yl)-5-(2-(2-methoxy-4-(trifluoromethyl)benzyl)-1,2,3,4-tetrahydroisoquinolin-6-yl)-2,6-dimethylpyridin-3-yl)acetic acid] | < 0.1 |
| Cc1nc(C)c([C@H](OC(C)(C)C)C(=O)O)c(N2CCC(C)(C)CC2)c1-c1ccc2c(c1)CCN(Cc1cccc(OC(F)(F)F)c1)C2 [Compound 110, (S)-2-(tert-butoxy)-2-(4-(4,4-dimethylpiperidin-1-yl)-2,6-dimethyl-5-(2-(3-(trifluoromethoxy)benzyl)-1,2,3,4-tetrahydroisoquinolin-6-yl)pyridin-3-yl)acetic acid] | < 0.1 |
| Cc1nc(C)c([C@H](OC(C)(C)C)C(=O)O)c(N2CCC(C)(C)CC2)c1-c1ccc2c(c1)CCN(Cc1cc(F)cc(OC(F)(F)F)c1)C2 [Compound 111, (S)-2-(tert-butoxy)-2-(4-(4,4-dimethylpiperidin-1-yl)-5-(2-(3-fluoro-5-(trifluoromethoxy)benzyl)-1,2,3,4-tetrahydroisoquinolin-6-yl)-2,6-dimethylpyridin-3-yl)acetic acid] | < 0.1 |
| COc1cc(CN2CCc3cc(-c4c(C)nc(C)c([C@H](OC(C)(C)C)C(=O)O)c4N4CCC(C)(C)CC4)ccc3C2)cc(C(F)(F)F)c1 [Compound 112, (S)-2-(tert-butoxy)-2-(4-(4,4-dimethylpiperidin-1-yl)-5-(2-(3-methoxy-5-(trifluoromethyl)benzyl)-1,2,3,4-tetrahydroisoquinolin-6-yl)-2,6-dimethylpyridin-3-yl)acetic acid] | < 0.1 |
| Cc1nc(C)c([C@H](OC(C)(C)C)C(=O)O)c(N2CCC(C)(C)CC2)c1-c1ccc2c(c1)CCN(Cc1cc(Cl)cc(OC(F)(F)F)c1)C2 [Compound 113, (S)-2-(tert-butoxy)-2-(5-(2-(3-chloro-5-(trifluoromethoxy)benzyl)-1,2,3,4-tetrahydroisoquinolin-6-yl)-4-(4,4-dimethylpiperidin-1-yl)-2,6-dimethylpyridin-3-yl)acetic acid] | < 0.1 |
| Cc1nc(C)c([C@H](OC(C)(C)C)C(=O)O)c(N2CCC(C)(C)CC2)c1-c1ccc2c(c1)CCN(Cc1ccccc1OC(F)F)C2 [Compound 114, (S)-2-(tert-butoxy)-2-(5-(2-(2-(difluoromethoxy)benzyl)-1,2,3,4-tetrahydroisoquinolin-6-yl)-4-(4,4-dimethylpiperidin-1-yl)-2,6-dimethylpyridin-3-yl)acetic acid] | < 0.1 |

Same assay, conditions: Human immunodeficiency virus 1, MT2, 120 h, read-out: EC50 μM

| SMILES | EC50 [µM] |
| --- | --- |
| CCOc1cccc(CN2CCc3cc(-c4c(C)nc(C)c([C@H](OC(C)(C)C)C(=O)O)c4N4CCC(C)(C)CC4)ccc3C2)c1 [Compound 103, (S)-2-(tert-butoxy)-2-(4-(4,4-dimethylpiperidin-1-yl)-5-(2-(3-ethoxybenzyl)-1,2,3,4-tetrahydroisoquinolin-6-yl)-2,6-dimethylpyridin-3-yl)acetic acid] | 0.012 |
| Cc1nc(C)c([C@H](OC(C)(C)C)C(=O)O)c(N2CCC(C)(C)CC2)c1-c1ccc2c(c1)CCN(Cc1cccc(OC(F)(F)F)c1)C2 [Compound 110, (S)-2-(tert-butoxy)-2-(4-(4,4-dimethylpiperidin-1-yl)-2,6-dimethyl-5-(2-(3-(trifluoromethoxy)benzyl)-1,2,3,4-tetrahydroisoquinolin-6-yl)pyridin-3-yl)acetic acid] | 0.008 |
